What was measured:
A2780 = A2780 viability assay (CellTiter-Glo, 72 hours); assay type: cell-based; details: Homo sapiens; A2780 cells
Method: Human […] cell line, MV4-11_(ATCC, Cat #CRL-9591), NSCLC (Non-small cell lung cancer) cell line H460 (ATCC, Cat #HTB-177), A2780 (ECACC, Cat #93112519) and OVCAR-3(ATCC, Cat #HTB-161) were obtained from ATCC. Cells were grown in RPMI-1640 media (Invitrogen, Cat #22400-089) supplemented with 10% FBS (Invitrogen, Cat #10099141) and 1% penicillin/streptomycin (Invitrogen, Cat #15070063) and cultured at 37° C., 5% CO2 in a humidified chamber. All cell lines were routinely tested for mycoplasma.
To effect of the CDK7 inhibitor to inhibit the growth of target cancer cells, viability assay were conducted a 72 hour time period. Briefly, the candidate cell line was plated in 96 well plate at the following density of cells respectively. 1×10^4 cells/well for MV4-11, 5×10^3 for H460 and OVCAR-3, and 1×10^3 for A2780. After 24 hours, the cells were treated with various concentrations of the compound (ranging from 0.0015 uM to 10 uM). DMSO solvent without compound served as a control and final DMSO concentration lest than 0.1%. After 72 hours of incubation at 37° C., 5% CO2 incubator, cells were analyzed for the viability using the CellTiter-Glo Luminescent Cell Viability Assay (Promega, Cat #G7570). All viability assays were performed in duplicate and Luminescence was read using an Envision (Perkin Elmer, USA). Data was analyzed using XLfit software.

CDK2/Cyclin A = molecular target: T1, CDK2/Cyclin A (Homo sapiens, UniProt P24941); experiment: Enzymatic assay for CDK2 (LANCE Ultra kinase assay, FRET based); assay type: biochemical; details: ATP at Km
T1 construct: purchased Invitrogen PV6290
Method: (§1) Enzymatic Binding Assay Protocol for CDK1, CDK2, CDK5 and CDK7
(§2) Inhibition activity of the respective compound on CDK kinase under Km value of ATP was tested in FRET based The LANCE® Ultra kinase assay (Perkin Elmer), which uses a ULight™-labeled peptide substrate and an appropriate Europium-labeled anti-phospho-antibody. Test compounds were made with DMSO solutions, and then 4-fold serial dilutions for 8 doses were prepared using automated liquid handler (POD™ 810, Labcyte) and 80 nL/well of diluted compound solutions were added into the 384-well plates (Greiner, Cat #784075). And then 68 nM of ULight-MBP peptide (Perkin Elmer, Cat #TRF0109-M) and 5 ul/well of ATP (Sigma, Cat #A7699) were added to the plate. After 1 min centrifugation at 1000 rpm, purified CDKs/Cyclin complex were added with the following concentrations respectively. 24 uM for CDK1/Cyclin B (Invitrogen, Cat #PR4768C), 22 uM for CDK2/Cyclin A (Invitrogen, Cat #PV6290), 10 uM for CDK5/p25 (Invitrogen, Cat #PR8543B) and […] for CDK7/Cyclin H/MNAT1 (Invitrogen, Cat #PR6749B) were added to each corresponding plate for CDK1, CDK2, CDK5 and CDK7. Incubate at 23° C. for 60 min and then Eu-labeled anti-phospho-Myelin Basic Protein (PE, Cat #TRF0201-M) and EDTA (Invitrogen, Cat #15575038) mixture in Lance Detection Buffer (Perkin Elmer, Cat #CR97100) was added in each well. After additional incubation at 23° C. for 60 min, test articles were measured the fluorescence using Envision leader (Perkin Elmer, USA) [Laser as excitation light; […] as the first and the second emission filter]. Data were analyzed using XL Fit software.

CDK1/Cyclin B = molecular target: T2, CDK1/Cyclin B (Homo sapiens, UniProt P06493); experiment: Enzymatic assay for CDK1 (LANCE Ultra kinase assay, FRET based); assay type: biochemical; details: ATP at Km; read-out: CDK1 enzymatic activity IC50
T2 construct: purchased Invitrogen PR4768C
T2 sequence (P06493 whole entry): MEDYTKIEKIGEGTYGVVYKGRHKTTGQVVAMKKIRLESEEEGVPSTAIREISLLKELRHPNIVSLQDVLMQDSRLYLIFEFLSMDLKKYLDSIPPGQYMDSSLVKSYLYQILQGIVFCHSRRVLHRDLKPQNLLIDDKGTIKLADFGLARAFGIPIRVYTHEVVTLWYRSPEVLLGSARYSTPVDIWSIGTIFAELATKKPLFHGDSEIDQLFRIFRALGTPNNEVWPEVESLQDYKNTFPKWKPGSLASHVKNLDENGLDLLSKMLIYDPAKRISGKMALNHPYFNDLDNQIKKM
T2 sequence (P14635 whole entry partner): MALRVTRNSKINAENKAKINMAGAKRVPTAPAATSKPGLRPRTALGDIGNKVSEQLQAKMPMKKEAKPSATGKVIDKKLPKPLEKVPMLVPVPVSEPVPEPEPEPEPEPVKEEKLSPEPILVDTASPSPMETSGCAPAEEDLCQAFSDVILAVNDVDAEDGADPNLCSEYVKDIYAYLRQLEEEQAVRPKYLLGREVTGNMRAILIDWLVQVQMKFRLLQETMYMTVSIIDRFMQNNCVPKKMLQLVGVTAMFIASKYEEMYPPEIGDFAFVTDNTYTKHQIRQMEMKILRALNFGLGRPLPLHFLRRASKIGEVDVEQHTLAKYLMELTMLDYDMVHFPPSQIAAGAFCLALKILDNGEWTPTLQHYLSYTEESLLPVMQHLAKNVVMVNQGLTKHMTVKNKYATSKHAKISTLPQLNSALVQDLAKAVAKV
Method: as §1
(§3) Inhibition activity of the respective compound on CDK kinase under Km value of ATP was tested in FRET based The LANCE® Ultra kinase assay (Perkin Elmer), which uses a ULight™-labeled peptide substrate and an appropriate Europium-labeled anti-phospho-antibody. […] After 1 min centrifugation at 1000 rpm, purified CDKs/Cyclin complex were added with the following concentrations respectively. […] Data were analyzed using XL Fit software.

CDK5/p25 = molecular target: T3, CDK5/p25 (Homo sapiens, UniProt Q00535); experiment: Enzymatic assay for CDK5 (LANCE Ultra kinase assay, FRET based); assay type: biochemical; details: ATP at Km
T3 construct: purchased Invitrogen PR8543B
T3 sequence (Q00535 whole entry): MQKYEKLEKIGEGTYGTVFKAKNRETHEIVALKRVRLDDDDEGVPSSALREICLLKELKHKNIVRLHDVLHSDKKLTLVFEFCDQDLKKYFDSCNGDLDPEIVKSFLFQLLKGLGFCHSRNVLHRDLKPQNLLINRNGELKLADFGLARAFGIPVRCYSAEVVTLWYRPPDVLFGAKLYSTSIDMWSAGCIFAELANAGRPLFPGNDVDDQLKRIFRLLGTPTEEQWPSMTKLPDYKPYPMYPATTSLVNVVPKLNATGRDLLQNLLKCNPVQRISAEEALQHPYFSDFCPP
T3 sequence (Q15078 99-307 partner limits assumed): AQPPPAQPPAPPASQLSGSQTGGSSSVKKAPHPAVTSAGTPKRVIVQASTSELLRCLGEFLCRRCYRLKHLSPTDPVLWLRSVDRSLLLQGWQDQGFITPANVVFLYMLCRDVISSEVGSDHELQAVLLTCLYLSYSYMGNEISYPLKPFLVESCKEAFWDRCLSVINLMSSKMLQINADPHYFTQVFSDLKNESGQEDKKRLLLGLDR
Method: as §1, §2

CDK7/Cyclin H/MNAT1 = molecular target: T4, CDK7/Cyclin H/MNAT1 (Homo sapiens, UniProt P50613); experiment: Enzymatic assay for CDK7 (LANCE Ultra kinase assay, FRET based); assay type: biochemical; details: for IC50: ATP at Km
T4 construct: purchased Invitrogen PR6749B
T4 sequence (P50613 whole entry): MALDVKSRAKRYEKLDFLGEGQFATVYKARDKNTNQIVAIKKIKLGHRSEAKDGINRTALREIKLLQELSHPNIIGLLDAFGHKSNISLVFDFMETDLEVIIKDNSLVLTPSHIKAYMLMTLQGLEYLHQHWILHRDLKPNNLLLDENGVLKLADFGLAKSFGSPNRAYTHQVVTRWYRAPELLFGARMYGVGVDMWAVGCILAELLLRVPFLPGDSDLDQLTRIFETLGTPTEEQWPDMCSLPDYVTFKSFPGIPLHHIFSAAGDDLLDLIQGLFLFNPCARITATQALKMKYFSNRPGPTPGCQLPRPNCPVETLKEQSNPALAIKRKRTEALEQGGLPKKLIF
T4 sequence (P51946 whole entry partner): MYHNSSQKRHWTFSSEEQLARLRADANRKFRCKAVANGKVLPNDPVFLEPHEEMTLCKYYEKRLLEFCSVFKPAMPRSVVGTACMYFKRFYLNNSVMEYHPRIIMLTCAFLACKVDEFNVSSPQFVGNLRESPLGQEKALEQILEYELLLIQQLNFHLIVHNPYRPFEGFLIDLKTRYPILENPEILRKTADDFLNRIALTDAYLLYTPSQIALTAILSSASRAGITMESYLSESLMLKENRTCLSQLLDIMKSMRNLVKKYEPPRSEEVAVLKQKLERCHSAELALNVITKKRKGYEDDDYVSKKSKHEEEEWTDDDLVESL
T4 sequence (P51948 whole entry partner): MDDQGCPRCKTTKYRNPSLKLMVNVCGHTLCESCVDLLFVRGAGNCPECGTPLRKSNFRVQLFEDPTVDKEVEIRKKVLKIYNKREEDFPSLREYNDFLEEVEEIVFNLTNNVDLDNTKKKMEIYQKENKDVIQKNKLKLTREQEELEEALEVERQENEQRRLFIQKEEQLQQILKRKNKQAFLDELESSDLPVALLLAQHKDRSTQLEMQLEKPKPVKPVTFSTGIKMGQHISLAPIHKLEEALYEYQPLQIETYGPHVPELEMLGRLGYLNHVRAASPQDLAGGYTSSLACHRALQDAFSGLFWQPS
Method: as §1, §3

Row | Structure (SMILES) | IC50 (A2780) [µM] | IC50 (CDK2/Cyclin A) [µM] | IC50 (CDK1/Cyclin B) [µM] | IC50 (CDK5/p25) [µM] | IC50 (CDK7/Cyclin H/MNAT1) [µM] | CDK1/CDK7: Selectivity of CDK7 inhibition over CDK1 inhibition (CDK7/Cyclin H/MNAT1) | CDK2/CDK7: Selectivity of CDK7 inhibition over CDK2 inhibition (CDK7/Cyclin H/MNAT1) | CDK5/CDK7: Selectivity of CDK7 inhibition over CDK5 inhibition (CDK7/Cyclin H/MNAT1)
1 | C=C(F)C(=O)N1CCc2c(cccc2-c2ccccc2CNc2nc(N[C@@H]3CCCNC3)nc3c(C(C)C)cnn23)C1 [Compound 192] | < 1 | > 1 | > 1 | > 1 | < 0.1 | A (A indicates [fold] > 500) | A (A indicates [fold] > 500) | A (A indicates [fold] > 500)
2 | C=CC(=O)Nc1ccc2c(-c3ccccc3CNc3nc(N4CCN(CC(F)(F)F)CC4)nc4c(C(C)C)cnn34)nccc2c1 [Compound 210] | < 1 | > 1 | > 1 | > 1 | < 0.1 | B (B indicates 50 < [fold] ≤ 500) | B (B indicates 50 < [fold] ≤ 500) | B (B indicates 50 < [fold] ≤ 500)
3 | C=C(Br)C(=O)Nc1ccc2c(-c3ccccc3CNc3nc(NC[C@H]4CCNC[C@@H]4O)nc4c(C(C)C)cnn34)nccc2c1 [Compound 205] | < 1 | > 1 | > 1 | > 1 | < 0.1 | B (B indicates 50 < [fold] ≤ 500) | B (B indicates 50 < [fold] ≤ 500) | B (B indicates 50 < [fold] ≤ 500)
4 | C=CC(=O)Nc1ccc2c(-c3ccccc3CNc3nc(N4CCc5ncccc5C4)nc4c(C(C)C)cnn34)nccc2c1 [Compound 212] | < 1 | > 1 | > 1 | > 1 | < 0.1 | A (A indicates [fold] > 500) | A (A indicates [fold] > 500) | A (A indicates [fold] > 500)
5 | C=CC(=O)Nc1ccc2c(-c3ccccc3CNc3nc(-c4cccnc4)nc4c(C(C)C)cnn34)nccc2c1 [Compound 200] | < 1 | > 1 | > 1 | > 1 | < 0.1 | B (B indicates 50 < [fold] ≤ 500) | B (B indicates 50 < [fold] ≤ 500) | B (B indicates 50 < [fold] ≤ 500)
6 | C=C(C)C(=O)Nc1ccc2c(-c3ccccc3CNc3nc(Nc4cccnc4)nc4c(C(C)C)cnn34)nccc2c1 [Compound 207] | < 1 | > 1 | > 1 | > 1 | 0.1 to 1 | B (B indicates 50 < [fold] ≤ 500) | B (B indicates 50 < [fold] ≤ 500) | B (B indicates 50 < [fold] ≤ 500)
7 | C=CC(=O)Nc1ccc2c(-c3ccccc3CNc3nc(Nc4cccc(OC5CCC(C)(C)NC5)c4)nc4c(C(C)C)cnn34)nccc2c1 (stereo not shown) [Compound 194] | < 1 | > 1 | > 1 | > 1 | < 0.1 | A (A indicates [fold] > 500) | A (A indicates [fold] > 500) | A (A indicates [fold] > 500)
8 | COC[C@H]1CC[C@H](Nc2nc(NCc3ccccc3-c3nccc4cc(NC(=O)/C=C/CN(C)C)ccc34)n3ncc(C(C)C)c3n2)CC1 [Compound 142] | – | > 1 | > 1 | > 1 | < 0.1 | A (A indicates [fold] > 500) | A (A indicates [fold] > 500) | A (A indicates [fold] > 500)
9 | C=C(F)C(=O)Nc1ccc2c(-c3ccccc3CNc3nc(NC[C@@H]4CNCCO4)nc4c(C(C)C)cnn34)nccc2c1 [Compound 149] | – | > 1 | > 1 | > 1 | < 0.1 | B (B indicates 50 < [fold] ≤ 500) | C (C indicates [fold] ≤ 50) | B (B indicates 50 < [fold] ≤ 500)
10 | CO[C@H]1CNCC[C@@H]1CNc1nc(NCc2ccccc2-c2nccc3cc(NC(=O)/C=C/CN(C)C)ccc23)n2ncc(C(C)C)c2n1 [Compound 131] | – | > 1 | > 1 | > 1 | < 0.1 | A (A indicates [fold] > 500) | A (A indicates [fold] > 500) | A (A indicates [fold] > 500)
11 | Cc1cccc(-c2cc3cccc(NC(=O)/C=C/CN(C)C)c3[nH]2)c1CNc1nc(NCC2CCNCC2)nc2c(C(C)C)cnn12 [Compound 139] | – | > 1 | > 1 | > 1 | < 0.1 | A (A indicates [fold] > 500) | A (A indicates [fold] > 500) | A (A indicates [fold] > 500)
12 | CNS(=O)(=O)C[C@H]1CC[C@H](Nc2nc(NCc3ccccc3-c3nccc4cc(NC(=O)/C=C/CN(C)C)ccc34)n3ncc(C(C)C)c3n2)CC1 [Compound 134] | – | > 1 | > 1 | > 1 | < 0.1 | A (A indicates [fold] > 500) | A (A indicates [fold] > 500) | A (A indicates [fold] > 500)
